Where two headings read alike, the source gives them in different places.
Assays:
Formalin animal model = details: oral civamide; cited from earlier work
[1] = rodents; cited from earlier work
normal volunteers = experiment: Abdominal distress / gastrointestinal discomfort after oral capsules in normal human volunteers; type: in vivo; details: soft gel capsules (not enteric coated)
[2] = dogs; cited from earlier work
hot-plate animal model = details: oral civamide; cited from earlier work
Chung animal model = details: oral civamide; cited from earlier work
[3] = cited from earlier work; for efficacy in painful, inflammatory or allergic disorders: compared with capsaicin compositions; for localized burning and stinging / local adverse effects: compared with capsaicin

COc1cc(CNC(=O)CCCC/C=C\C(C)C)ccc1O [civamide, cis-8-methyl-N-vanillyl-6-nonenamide]
analgesia (Formalin animal model): effective analgesia
absorption of an administered oral dose [1]: 8-12%
abdominal distress / local burning and discomfort in the gastrointestinal tract (normal volunteers): more local burning and discomfort in the gastrointestinal tract than comparable dosages of capsaicin
absorption of an administered oral dose [2]: 8-12%
analgesia (hot-plate animal model): effective analgesia
analgesia (Chung animal model): effective analgesia
efficacy in painful, inflammatory or allergic disorders [3]: comparable in efficacy
efficacy in painful, inflammatory or allergic disorders ([3]; listed as Civamide): effective
localized burning and stinging / local adverse effects [3]: significantly less local adverse effects
localized burning and stinging / local adverse effects ([3]; listed as Civamide): significantly less of the localized burning and stinging

— patent US20160000734A1, “METHOD AND COMPOSITIONS OF CIVAMIDE TO TREAT DISEASE OF THE INTESTINES” (WINSTON LABORATORIES, INC., priority 2010, published 2016)
